Data: US10723701B2, “Quinolyl-substituted carboxylic acid compound or pharmaceutically acceptable salt thereof, pharmaceutical composition of the same, and use of the same” (BEIJING KONRUNS PHARMACEUTICAL CO., LTD., priority 2016, dated 2020)

Experiments:
[1] = biological target: T1, AXL (Homo sapiens, UniProt P30530); experiment: Radioactive protein kinase assay (33PanQinase Activity Assay), AXL; conditions: ATP 0.3 μM (Km), substrate Poly(Glu, Tyr) 4:1, 30° C., 60 minutes; read-out: Biochemical IC50 (nM) AXL
T1 construct: purchased ProQinase GmbH
T1 sequence (P30530 26-894): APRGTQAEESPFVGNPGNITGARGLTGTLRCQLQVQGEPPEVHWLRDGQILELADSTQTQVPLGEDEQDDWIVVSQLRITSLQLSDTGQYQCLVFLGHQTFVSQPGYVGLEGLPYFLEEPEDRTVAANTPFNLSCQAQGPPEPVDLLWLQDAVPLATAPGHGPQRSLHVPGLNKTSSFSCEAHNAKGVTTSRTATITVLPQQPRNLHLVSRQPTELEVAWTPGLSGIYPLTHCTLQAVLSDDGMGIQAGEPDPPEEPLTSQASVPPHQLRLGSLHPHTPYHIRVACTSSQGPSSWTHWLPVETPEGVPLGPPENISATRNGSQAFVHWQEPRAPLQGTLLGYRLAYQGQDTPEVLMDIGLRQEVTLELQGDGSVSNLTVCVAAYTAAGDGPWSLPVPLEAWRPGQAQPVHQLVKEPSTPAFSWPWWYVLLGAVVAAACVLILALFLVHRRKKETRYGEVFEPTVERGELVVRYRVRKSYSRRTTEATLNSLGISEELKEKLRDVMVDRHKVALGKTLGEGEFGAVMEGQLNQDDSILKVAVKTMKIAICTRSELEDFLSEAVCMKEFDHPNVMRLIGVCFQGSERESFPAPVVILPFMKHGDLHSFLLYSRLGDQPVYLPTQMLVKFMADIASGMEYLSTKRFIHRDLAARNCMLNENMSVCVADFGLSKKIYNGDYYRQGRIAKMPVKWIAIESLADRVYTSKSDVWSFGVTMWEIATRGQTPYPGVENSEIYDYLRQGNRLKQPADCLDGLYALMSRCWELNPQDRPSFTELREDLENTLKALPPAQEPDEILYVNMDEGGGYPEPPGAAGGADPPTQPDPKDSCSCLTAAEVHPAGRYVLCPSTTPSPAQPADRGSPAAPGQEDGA
Method: (§1) Biochemical inhibitory activity against AXL and VEGFR2 kinases: the biochemical IC50 values of the compound according to the present application for inhibiting AXL and VEGFR2 kinases were measured by ProQinase GmbH Company (Breisacher Str. 117, D-79106 Freiburg, Germany, www.proqinase.com). The specific steps are described as follows:
(§2) Firstly, the compound according to the present application was dissolved in dimethyl sulfoxide (DMSO) to prepare a stock solution of 1×10^−3 M. 10 different concentrations (from […] to 3×10^−10 M) were prepared by the serial semi-logarithmic dilution.
(§3) The biochemical activities of AXL and VEGFR2 were determined by the radioactive protein kinase assay (33PanQinase® Activity Assay). The assay was performed using a FlashPlates™ 96-well plate manufactured by Perkin Elmer (Boston, Mass., USA) with a reaction volume of 50 μL. The reaction mixture was added by a dropper in the following four steps:
(§4) (1) 20 μL of buffer solution (standard buffer);
(§5) (2) 5 μL of an aqueous solution of ATP;
(§6) (3) 5 μL of the compound (10% DMSO solution);
(§7) (4) 10 μL of a substrate/10 μL of a solution of the kinase.
(§8) The solution to be measured contains HEPES-NaOH (70 mM, pH=7.5), MgCl2 (3 mM), MnCl2 (3 mM), Na-orthovanadate (3 μM), DTT (1.2 mM), PEG20000 (50 μg/mL), ATP (in a concentration that is same as Km of the kinase and varies depending on different kinases), [γ-^33P]-ATP (about 4×10^5 cpm/well), kinase and substrate.
(§9) The reaction was carried out at 30° C. for 60 minutes, and 50 μL of 2% (v/v) phosphoric acid was added to terminate the reaction. The reaction mixture in each well was aspirated and washed twice with 200 μL of 0.9% (w/v) NaCl solution. The amount of the incorporation of ^33P was determined by using a microplate scintillation counter.

[2] = biological target: T2, VEGFR2 (Homo sapiens, UniProt P35968); experiment: Radioactive protein kinase assay (33PanQinase Activity Assay), VEGFR2; conditions: ATP 1.0 μM (Km), substrate Poly(Glu, Tyr) 4:1, 30° C., 60 minutes; read-out: Biochemical IC50 (nM) VEGFR2
T2 construct: purchased ProQinase GmbH
Method: as §1, §2, §3, §4, §5, §6, §7, §8, §9

T2 sequence (P35968 20-1356): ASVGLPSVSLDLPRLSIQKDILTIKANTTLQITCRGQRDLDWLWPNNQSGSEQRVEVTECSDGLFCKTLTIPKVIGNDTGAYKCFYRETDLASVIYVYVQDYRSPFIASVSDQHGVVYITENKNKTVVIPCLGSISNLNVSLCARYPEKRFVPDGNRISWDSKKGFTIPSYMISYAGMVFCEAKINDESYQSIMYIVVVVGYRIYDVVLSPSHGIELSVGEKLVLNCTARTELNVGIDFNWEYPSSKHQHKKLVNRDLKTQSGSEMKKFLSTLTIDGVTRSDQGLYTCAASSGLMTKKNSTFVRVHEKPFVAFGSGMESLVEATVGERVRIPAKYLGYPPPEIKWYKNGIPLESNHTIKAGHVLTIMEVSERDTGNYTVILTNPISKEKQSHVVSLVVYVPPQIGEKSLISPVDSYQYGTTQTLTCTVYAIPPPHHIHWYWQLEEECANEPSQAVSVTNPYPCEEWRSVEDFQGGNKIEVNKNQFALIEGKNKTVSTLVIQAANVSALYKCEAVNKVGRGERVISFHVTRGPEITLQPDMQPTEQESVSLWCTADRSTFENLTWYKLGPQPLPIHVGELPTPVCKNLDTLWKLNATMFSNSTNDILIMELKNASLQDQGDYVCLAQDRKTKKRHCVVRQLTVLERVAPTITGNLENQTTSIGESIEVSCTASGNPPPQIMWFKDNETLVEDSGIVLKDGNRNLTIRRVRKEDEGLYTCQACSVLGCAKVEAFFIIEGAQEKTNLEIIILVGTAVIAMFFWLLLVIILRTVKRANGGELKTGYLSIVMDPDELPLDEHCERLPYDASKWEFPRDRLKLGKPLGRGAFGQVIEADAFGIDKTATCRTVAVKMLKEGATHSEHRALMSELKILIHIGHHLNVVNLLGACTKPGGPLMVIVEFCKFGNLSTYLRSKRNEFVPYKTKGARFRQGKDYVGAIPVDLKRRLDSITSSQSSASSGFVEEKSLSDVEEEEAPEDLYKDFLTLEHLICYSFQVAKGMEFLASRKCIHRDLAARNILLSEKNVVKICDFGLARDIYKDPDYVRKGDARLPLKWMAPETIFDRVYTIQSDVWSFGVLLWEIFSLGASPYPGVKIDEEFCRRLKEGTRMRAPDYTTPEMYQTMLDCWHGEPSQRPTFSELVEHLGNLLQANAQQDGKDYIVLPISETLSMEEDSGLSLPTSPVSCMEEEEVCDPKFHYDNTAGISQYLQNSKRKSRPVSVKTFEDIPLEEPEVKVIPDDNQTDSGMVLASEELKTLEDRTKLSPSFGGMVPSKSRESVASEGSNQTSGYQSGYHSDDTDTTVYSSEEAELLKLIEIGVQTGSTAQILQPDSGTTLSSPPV

Row | IC50 [1] [nM] | IC50 [2] [nM] | SMILES
1 | 55.3 | 24.5 | COc1cc2c(Oc3ccc(NC(=O)C4(C(=O)Nc5ccc(F)cc5)CC4)cc3F)ccnc2cc1OCC(=O)O [Example 1, 2-[[4-[2-fluoro-4-[[1-[(4-fluorophenyl)carbamoyl]cyclopropanecarbonyl]amino]phenoxy]-6-methoxy-7-quinolyl]oxy]acetic acid]
2 | 9.86 | 6.56 | COc1cc2c(Oc3ccc(NC(=O)C4(C(=O)Nc5ccc(F)cc5)CC4)cc3F)ccnc2cc1OCCCC(=O)O [Example 3, 4-[[4-[2-fluoro-4-[[1-[(4-fluorophenyl)carbamoyl]cyclopropanecarbonyl]amino]phenoxy]-6-methoxy-7-quinolyl]oxy]butyric acid]
3 | 9.05 | 8.03 | COc1cc2c(Oc3ccc(NC(=O)C4(C(=O)Nc5ccc(F)cc5)CC4)cc3F)ccnc2cc1OCCCC(=O)O [Example 4, Sodium 4-[[4-[2-fluoro-4-[[1-[(4-fluorophenyl)carbamoyl]cyclopropanecarbonyl]amino]phenoxy]-6-methoxy-7-quinolyl]oxy]butyrate]
4 | 7.49 | 6.6 | COc1cc2c(Oc3ccc(NC(=O)C4(C(=O)Nc5ccc(F)cc5)CC4)cc3F)ccnc2cc1OCCCCC(=O)O [Example 6, 5-[[4-[2-fluoro-4-[[1-[(4-fluorophenyl)carbamoyl]cyclopropanecarbonyl]amino]phenoxy]-6-methoxy-7-quinolyl]oxy]valeric acid]
5 | 6.08 | 8.66 | COc1cc2c(Oc3ccc(NC(=O)C4(C(=O)Nc5ccc(F)cc5)CC4)cc3F)ccnc2cc1OCCCCC(=O)O [Example 8, Triethylammonium 5-[[4-[2-fluoro-4-[[1-[(4-fluorophenyl)carbamoyl]cyclopropanecarbonyl]amino]phenoxy]-6-methoxy-7-quinolyl]oxy]valerate]
6 | 10.2 | 16 | COc1cc2c(Oc3ccc(NC(=O)C4(C(=O)Nc5ccc(F)cc5)CC4)cc3F)ccnc2cc1OCCCCCC(=O)O [Example 9, 6-[[4-[2-fluoro-4-[[1-[(4-fluorophenyl)carbamoyl]cyclopropanecarbonyl]amino]phenoxy]-6-methoxy-7-quinolyl]oxy]caproic acid]
7 | 11.9 | 13.9 | COc1cc2c(Oc3ccc(NC(=O)C4(C(=O)Nc5ccc(F)cc5)CC4)cc3F)ccnc2cc1OCCCCCC(=O)O [Example 10, Sodium 6-[[4-[2-fluoro-4-[[1-[(4-fluorophenyl)carbamoyl]cyclopropanecarbonyl]amino]phenoxy]-6-methoxy-7-quinolyl]oxy]caproate]
8 | 14.9 | 13.6 | COc1cc2c(Oc3ccc(NC(=O)C4(C(=O)Nc5ccc(F)cc5)CC4)cc3F)ccnc2cc1OCCCCCC(=O)O [Example 11, Potassium 6-[[4-[2-fluoro-4-[[1-[(4-fluorophenyl)carbamoyl]cyclopropanecarbonyl]amino]phenoxy]-6-methoxy-7-quinolyl]oxy]caproate]
9 | 10.7 | 10.4 | COc1cc2c(Oc3ccc(NC(=O)C4(C(=O)Nc5ccc(F)cc5)CC4)cc3F)ccnc2cc1OCCCCCC(=O)O [Example 12, Calcium 6-[[4-[2-fluoro-4-[[1-[(4-fluorophenyl)carbamoyl]cyclopropanecarbonyl]amino]phenoxy]-6-methoxy-7-quinolyl]oxy]caproate (1:1)]
10 | 8.63 | 12.6 | COc1cc2c(Oc3ccc(NC(=O)C4(C(=O)Nc5ccc(F)cc5)CC4)cc3F)ccnc2cc1OCCCCCC(=O)O [Example 13, 1,3-dihydroxy-2-(hydroxymethyl)propan-2-ammonium 6-[[4-[2-fluoro-4-[[1-[(4-fluorophenyl)carbamoyl]cyclopropanecarbonyl]amino]phenoxy]-6-methoxy-7-quinolyl]oxy]caproate]
11 | 13.7 | 13.6 | COc1cc2c(Oc3ccc(NC(=O)C4(C(=O)Nc5ccc(F)cc5)CC4)cc3F)ccnc2cc1OCCCCCCC(=O)O [Example 14, 7-[[4-[2-fluoro-4-[[1-[(4-fluorophenyl)carbamoyl]cyclopropanecarbonyl]amino]phenoxy]-6-methoxy-7-quinolyl]oxy]heptanoic acid]
12 | 19.8 | 18.9 | COc1cc2c(Oc3ccc(NC(=O)C4(C(=O)Nc5cccc(Cl)c5)CC4)cc3F)ccnc2cc1OCCCCCCC(=O)O [Example 16, Calcium 7-[[4-[2-fluoro-4-[[1-[(3-chlorophenyl)carbamoyl]cyclopropanecarbonyl]amino]phenoxy]-6-methoxy-7-quinolyl]oxy]heptanoate]
13 | 10.7 | 9.86 | CCOc1cc2c(Oc3ccc(NC(=O)C4(C(=O)Nc5ccc(F)cc5)CC4)cc3F)ccnc2cc1OCC(=O)O [Example 18, Potassium 2-[[4-[2-fluoro-4-[[1-[(4-fluorophenyl)carbamoyl]cyclopropanecarbonyl]amino]phenoxy]-6-ethoxy-7-quinolyl]oxy]acetate]
